# In PubChem BioAssay (NCI):
#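 48-hour exposure; five concentrations; linearly interpolated endpoints. GI50 is the concentration that inhibits growth by half. TGI denotes the concentration required for complete inhibition of growth.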
# Assays:
# Assay in all cases: NCI anticancer screen, dose series, 48 h
# [1] = tested on: A498 renal
# [2] = tested on: HL-60(TB) leukemia
# [3] = tested on: HT29 colon
# [4] = tested on: SR leukemia
# [5] = tested on: OVCAR-5 ovarian
# [6] = tested on: RXF 393 renal
# [7] = tested on: MDA-MB-231 breast
# [8] = tested on: K-562 leukemia
# [9] = tested on: SF-295 CNS
# [10] = tested on: NCI-H226 lung
# [11] = tested on: SF-539 CNS
# [12] = tested on: HS 578T breast
# [13] = tested on: HCT-116 colon
# [14] = tested on: SNB-75 CNS
# [15] = tested on: SF-268 CNS
# [16] = tested on: HCT-15 colon
# [17] = tested on: U251 CNS
# [18] = tested on: MDA-MB-435
# [19] = tested on: M14 melanoma
# [20] = tested on: SK-MEL-2 melanoma
# [21] = tested on: HOP-62 NSCLC
# [22] = tested on: CAKI-1 renal
# [23] = tested on: MOLT-4 leukemia
# [24] = tested on: TK-10 renal
# [25] = tested on: OVCAR-3 ovarian
# [26] = tested on: MDA-MB-468 breast
# [27] = tested on: SK-MEL-5 melanoma
# [28] = tested on: PC-3 prostate
# [29] = tested on: OVCAR-8 ovarian
# [30] = tested on: COLO 205 colon
# [31] = tested on: CCRF-CEM leukemia
# [32] = tested on: UACC-62 melanoma
# [33] = tested on: DU-145 prostate
# [34] = tested on: A549 NSCLC
# [35] = tested on: ACHN renal
# [36] = tested on: UACC-257 melanoma
# [37] = tested on: LOX IMVI melanoma
# [38] = tested on: NCI-H460 lung
# [39] = tested on: HCC-2998 colon
# [40] = tested on: SK-OV-3 ovarian
# [41] = tested on: SN12C renal
# [42] = tested on: BT-549 breast
# [43] = tested on: NCI-H23 lung
# [44] = tested on: EKVX NSCLC
# [45] = tested on: SNB-19 CNS
# [46] = tested on: SK-MEL-28 melanoma
# [47] = tested on: IGROV1 ovarian
# [48] = tested on: NCI-H522 lung
# [49] = tested on: T-47D breast
# [50] = tested on: MCF7 breast
# [51] = tested on: OVCAR-4 ovarian
# [52] = tested on: 786-0 renal
# [53] = tested on: HOP-92 NSCLC
# [54] = tested on: RPMI-8226 leukemia
# [55] = tested on: KM12 colon
# [56] = tested on: MALME-3M melanoma
# [57] = tested on: SW-620 colon
# [58] = tested on: UO-31 renal
smiles,measurement,setting,value
CC1=C(C)C(=O)C(NCCN2CCOCC2)=C(Br)C1=O,GI50,[1],19.2 µM
same,TGI,[1],34 µM
same,GI50,[2],2.46 µM
same,TGI,[2],7.24 µM
same,GI50,[3],16 µM
same,TGI,[3],31.3 µM
same,GI50,[4],19.2 µM
same,TGI,[4],66.7 µM
same,GI50,[5],6.43 µM
same,TGI,[5],19.3 µM
same,GI50,[6],12.7 µM
same,TGI,[6],25.3 µM
same,GI50,[7],5.65 µM
same,TGI,[7],18.7 µM
same,GI50,[8],3.3 µM
same,TGI,[8],61.9 µM
same,GI50,[9],17.8 µM
same,TGI,[9],31.9 µM
same,GI50,[10],12.1 µM
same,TGI,[10],26.7 µM
same,GI50,[11],17 µM
same,TGI,[11],31.5 µM
same,GI50,[12],9.04 µM
same,TGI,[12],34.6 µM
same,GI50,[13],2.93 µM
same,TGI,[13],10.9 µM
same,GI50,[14],18.5 µM
same,TGI,[14],34.2 µM
same,GI50,[15],12.8 µM
same,TGI,[15],32 µM
same,GI50,[16],15.9 µM
same,TGI,[16],30.9 µM
same,GI50,[17],12 µM
same,TGI,[17],25.2 µM
same,GI50,[18],1.81 µM
same,TGI,[18],3.35 µM
same,GI50,[19],13.6 µM
same,TGI,[19],26.7 µM
same,GI50,[20],11.7 µM
same,TGI,[20],24.2 µM
same,GI50,[21],14.6 µM
same,TGI,[21],28.1 µM
same,GI50,[22],10.7 µM
same,TGI,[22],23.3 µM
same,GI50,[23],5.35 µM
same,TGI,[23],32.8 µM
same,GI50,[24],19.2 µM
same,TGI,[24],33.3 µM
same,GI50,[25],2.1 µM
same,TGI,[25],7.16 µM
same,GI50,[26],0.222 µM
same,TGI,[26],0.885 µM
same,GI50,[27],11.6 µM
same,TGI,[27],23.8 µM
same,GI50,[28],16.9 µM
same,TGI,[28],50.6 µM
same,GI50,[29],3.84 µM
same,TGI,[29],15.8 µM
same,GI50,[30],17.9 µM
same,TGI,[30],33.6 µM
same,GI50,[31],3.44 µM
same,TGI,[31],> 100 µM
same,GI50,[32],5.78 µM
same,TGI,[32],18.4 µM
same,GI50,[33],12.7 µM
same,TGI,[33],25.7 µM
same,GI50,[34],17.4 µM
same,TGI,[34],34 µM
same,GI50,[35],13.8 µM
same,TGI,[35],26.8 µM
same,GI50,[36],2.55 µM
same,TGI,[36],7 µM
same,GI50,[37],2.33 µM
same,TGI,[37],8.36 µM
same,GI50,[38],16.1 µM
same,TGI,[38],34.2 µM
same,GI50,[39],15.3 µM
same,TGI,[39],28.7 µM
same,GI50,[40],12.5 µM
same,TGI,[40],25.2 µM
same,GI50,[41],14.9 µM
same,TGI,[41],28.2 µM
same,GI50,[42],13.7 µM
same,TGI,[42],26.6 µM
same,GI50,[43],3.84 µM
same,TGI,[43],16.3 µM
same,GI50,[44],12.8 µM
same,TGI,[44],25.9 µM
same,GI50,[45],16.3 µM
same,TGI,[45],30.5 µM
same,GI50,[46],14.5 µM
same,TGI,[46],28 µM
same,GI50,[47],10.5 µM
same,TGI,[47],22.9 µM
same,GI50,[48],3.01 µM
same,TGI,[48],11.7 µM
same,GI50,[49],2.01 µM
same,TGI,[49],4.74 µM
same,GI50,[50],3.66 µM
same,TGI,[50],15.2 µM
same,GI50,[51],5.02 µM
same,TGI,[51],17.6 µM
same,GI50,[52],17.8 µM
same,TGI,[52],32.1 µM
same,GI50,[53],13.3 µM
same,TGI,[53],28 µM
same,GI50,[54],13.9 µM
same,TGI,[54],55 µM
same,GI50,[55],16.7 µM
same,TGI,[55],39.6 µM
same,GI50,[56],2.25 µM
same,TGI,[56],5.37 µM
same,GI50,[57],2.94 µM
same,TGI,[57],14 µM
same,GI50,[58],11 µM
same,TGI,[58],23.2 µM
